Measured values reported in PubChem BioAssay (NCI).
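Dose response: 5 concentrations. Exposure: 48 h. Format: 96-well plates. Endpoint: linear interpolation; highest concentration if not reached. Here, GI50 denotes the concentration required for 50% inhibition of growth. TGI denotes the concentration required for complete inhibition of growth.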

How the values were obtained:
Experiment in all cases: inhibition of tumour cell growth, NCI panel, 48 h
[1] = test system: 786-0 renal
[2] = test system: A498 renal
[3] = test system: A549 NSCLC
[4] = test system: ACHN renal
[5] = test system: BT-549 breast
[6] = test system: CAKI-1 renal
[7] = test system: CCRF-CEM leukemia
[8] = test system: COLO 205 colon
[9] = test system: DU-145 prostate
[10] = test system: HCC-2998 colon
[11] = test system: HCT-116 colon
[12] = test system: HCT-15 colon
[13] = test system: HL-60(TB) leukemia
[14] = test system: HOP-62 NSCLC
[15] = test system: HOP-92 NSCLC
[16] = test system: HS 578T breast
[17] = test system: HT29 colon
[18] = test system: IGROV1 ovarian
[19] = test system: K-562 leukemia
[20] = test system: KM12 colon
[21] = test system: LOX IMVI melanoma
[22] = test system: M14 melanoma
[23] = test system: MALME-3M melanoma
[24] = test system: MCF7 breast
[25] = test system: MDA-MB-231 breast
[26] = test system: MDA-MB-435
[27] = test system: MOLT-4 leukemia
[28] = test system: NCI-H226 lung
[29] = test system: NCI-H23 lung
[30] = test system: NCI-H460 lung
[31] = test system: NCI-H522 lung
[32] = test system: NCI/ADR-RES ovarian
[33] = test system: OVCAR-3 ovarian
[34] = test system: OVCAR-4 ovarian
[35] = test system: OVCAR-5 ovarian
[36] = test system: OVCAR-8 ovarian
[37] = test system: PC-3 prostate
[38] = test system: RPMI-8226 leukemia
[39] = test system: RXF 393 renal
[40] = test system: SF-268 CNS
[41] = test system: SF-295 CNS
[42] = test system: SF-539 CNS
[43] = test system: SK-MEL-28 melanoma
[44] = test system: SK-MEL-5 melanoma
[45] = test system: SK-OV-3 ovarian
[46] = test system: SN12C renal
[47] = test system: SNB-19 CNS
[48] = test system: SNB-75 CNS
[49] = test system: SR leukemia
[50] = test system: SW-620 colon
[51] = test system: T-47D breast
[52] = test system: TK-10 renal
[53] = test system: U251 CNS
[54] = test system: UACC-257 melanoma
[55] = test system: UACC-62 melanoma
[56] = test system: UO-31 renal

FC(F)(F)c1cccc(Nc2nc3ccccc3nc2Nc2cccc(C(F)(F)F)c2)c1
GI50 [1]: 1810 nM
TGI [1]: 3.91 µM
GI50 [2]: 663 nM
TGI [2]: 3.99 µM
GI50 [3]: 368 nM
TGI [3]: 2810 nM
GI50 [4]: 415 nM
TGI [4]: 2230 nM
GI50 [5]: 2710 nM
TGI [5]: 7.6 µM
GI50 [6]: 1020 nM
TGI [6]: 8.78 µM
GI50 [7]: 710 nM
TGI [7]: 3.84 µM
GI50 [8]: 682 nM
TGI [8]: 2180 nM
GI50 [9]: 732 nM
TGI [9]: 13 µM
GI50 [10]: 2930 nM
TGI [10]: 7.45 µM
GI50 [11]: 361 nM
TGI [11]: 1520 nM
GI50 [12]: 515 nM
TGI [12]: 2050 nM
GI50 [13]: 1860 nM
TGI [13]: 4.77 µM
GI50 [14]: 762 nM
TGI [14]: 2170 nM
GI50 [15]: 1360 nM
TGI [15]: 4.67 µM
GI50 [16]: 2670 nM
TGI [16]: 7.88 µM
GI50 [17]: 391 nM
TGI [17]: 2030 nM
GI50 [18]: 3.2 µM
TGI [18]: 16.8 µM
GI50 [19]: 1280 nM
TGI [19]: 5.61 µM
GI50 [20]: 1990 nM
TGI [20]: 4.95 µM
GI50 [21]: 1500 nM
TGI [21]: 3.07 µM
GI50 [22]: 972 nM
TGI [22]: 3.15 µM
GI50 [23]: 2130 nM
TGI [23]: 6.33 µM
GI50 [24]: 2040 nM
TGI [24]: 9.63 µM
GI50 [25]: 993 nM
TGI [25]: 2730 nM
GI50 [26]: 1030 nM
TGI [26]: 2880 nM
GI50 [27]: 1510 nM
TGI [27]: 4.34 µM
GI50 [28]: 1210 nM
TGI [28]: 2980 nM
GI50 [29]: 1720 nM
TGI [29]: 6.31 µM
GI50 [30]: 457 nM
TGI [30]: 10.1 µM
GI50 [31]: 335 nM
TGI [31]: 1630 nM
GI50 [32]: 1980 nM
TGI [32]: 11.4 µM
GI50 [33]: 444 nM
TGI [33]: 4.3 µM
GI50 [34]: 2930 nM
TGI [34]: 14.6 µM
GI50 [35]: 454 nM
TGI [35]: 3.39 µM
GI50 [36]: 745 nM
TGI [36]: 5.57 µM
GI50 [37]: 495 nM
TGI [37]: 7.61 µM
GI50 [38]: 797 nM
TGI [38]: 3.95 µM
GI50 [39]: 882 nM
TGI [39]: 2340 nM
GI50 [40]: 1290 nM
TGI [40]: 13 µM
GI50 [41]: 1920 nM
TGI [41]: 5.41 µM
GI50 [42]: 959 nM
TGI [42]: 3.12 µM
GI50 [43]: 1710 nM
TGI [43]: 4.73 µM
GI50 [44]: 481 nM
TGI [44]: 1700 nM
GI50 [45]: 437 nM
TGI [45]: 1580 nM
GI50 [46]: 442 nM
TGI [46]: 2850 nM
GI50 [47]: 732 nM
TGI [47]: 15.4 µM
GI50 [48]: 1150 nM
TGI [48]: 6.71 µM
GI50 [49]: 1110 nM
TGI [49]: 3.36 µM
GI50 [50]: 1710 nM
TGI [50]: 4.01 µM
GI50 [51]: 1410 nM
TGI [51]: 4.73 µM
GI50 [52]: 1470 nM
TGI [52]: 3.8 µM
GI50 [53]: 427 nM
TGI [53]: 1910 nM
GI50 [54]: 2020 nM
TGI [54]: 5.54 µM
GI50 [55]: 1560 nM
TGI [55]: 5.47 µM
GI50 [56]: 1980 nM
TGI [56]: 11 µM
